One series relates to certain cells. The conditions noted are these: ref [28],[29],[30],[31],[32]; cited from earlier work. An excerpt: (§1) To the best of our knowledge, such an effect of the crotalid peptide on cell plasma membrane constituents has never been described in the literature. The simplest explanation is that crotalphine interacts also with lipid membrane constituents since interactions between gating modifier toxins and the lipid membranes surrounding the channel have been previously evidenced. It is therefore likely that, in addition to the Na^+ channel subtype NaV1.7, the crotalid peptide targets also a second cell plasma membrane component. Further experiments are still needed to identify this second me ...

In series [1] the test system is NaV channels and voltage-sensitive potassium (KV) channels. The conditions noted are these: initially NaV channels, later KV channels; ref [28],[29],[30],[31],[32]; cited from earlier work.
Excerpt: as §1

The test system of another series is DRG neurons. It counts as cell-based, adult mouse (Swiss, Mus musculus). The conditions noted are these: positive control, 0.1%, 5–75 min; mean ± S.E.M., n = 4. Here is the method:
The CHO epithelial cell line was cultured as previously described. Primary cultures of DRG neurons were performed using adult female Swiss mice (Mus musculus, 8–12 weeks of age and 25–32 g body weight), purchased from Janvier Elevage (Le Genest-Saint-Isle, France) and acclimatized at the CEA animal facility for at least 48 hr before the experiments. All experimental procedures on mice were permitted by the Animal Ethics Committee of the CEA and the French General Directorate for Research and Innovation (project APAFIS#26651-2020072011192542v1, authorized for E.B. on 20 July 2020 for 5 years). […]
Cell viability was quantified by propidium iodide and trypan blue dye exclusion assays. […] The percentage of viable cells (i.e., the number of non-fluorescent cells relative to the number of total cells) was determined using the ImageJ 1.53g software (National Institutes of Health, Bethesda, MD, USA). At the end of the experiments, the total fluorescence of each well (function of the amount of propidium iodide-positive dead cells) was measured using a CLARIOstar® Plus microplate reader (BMG Labtech, Champigny-Sur-Marne, France).
The data are expressed as the means ± standard error of the mean (S.E.M.) of n different experiments. […]

Series [2] has as its system NaV1.7 component of the TTX-sensitive Na^+ current of DRG neurons. It is filed as cell-based, adult mouse (Swiss, Mus musculus).
For another series, the system named is hNaV1.2–1.6 and hNaV1.8. The conditions noted are these: ref [22],[23],[24]; cited from earlier work.
In the next series the test system is hNaV1.7. The conditions noted are these: cited from earlier work.
For a further series, the system named is hNaV1.1. The settings on record: ref [22],[23],[24]; cited from earlier work.

Bounds are passed on as bounds.

In the case of “crotamine: the most abundant protein in the Crotalus durissus terrificus's venom (YKQCHKKGGHCFPKEKICLPPSSDFGKMDCRWRWKCCKKGSG; UniProt Q9PWF3 23-64, looked up)”, in the series with certain cells, the “effect on cell viability” value is listed as “decrease the viability of certain cells”. In series [1], the “effect on functioning of ionic channels” value is on record as “alter the functioning of ionic channels”.
As to triton X-100, the “decrease in viability of DRG neurons” value in the series on DRG neurons was 89.1 ± 1.7%.
Turning to `NC1=N[C@H](O)[C@H]2[C@H]3O[C@]4(O)O[C@@H]([C@@H](O)[C@@]2(N1)[C@@H]4O)[C@]3(O)CO` [TTX, tetrodotoxin], in series [2], the “Na^+ current decreased to % of the initial peak amplitude” value was 8.1 ± 5.1% and the “recovery of the current after washout” value was determined as 83.5 ± 4.5%.
For “ProTx-II: tarantula venom peptide, a well-known selective inhibitor of the NaV1.7 channel subtype”, the IC50 – broadly, the concentration at which inhibition is half-maximal – in the series with hNaV1.2–1.6 and hNaV1.8 is greater than 25 nM; in the series with hNaV1.7, 0.3 to 1.6 nM; with hNaV1.1 it was 16 nM. Besides, the “decrease in the TTX-sensitive Na^+ current amplitude” value in series [2] (10 nM, n = 3, unpublished data) is given as 79.2 ± 4.8%.

(Values after PMC11359915, “Rattlesnake Crotalphine Analgesic Active on Tetrodotoxin-Sensitive Na^+ Current in Mouse Dorsal Root Ganglion Neurons” (Toxins, 2024).)
